This note sets out measurements from the METLIN SMRT retention time set (Domingo-Almenara et al. 2019).

A short description of this data set: gradient 5% acetonitrile 3 min, to 50% in 2 min, to 85% in 15 min, held 3 min, 100 µL/min. The settings on record: column: Zorbax Extend-C18 2.1 x 50 mm; eluents: water / acetonitrile, 0.1% formic acid. Put shortly:
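In both positive and negative ionization mode, a quadrupole time-of-flight mass spectrometer coupled to HPLC analyzed pure standards run in mixtures of ~100 molecules. The Zorbax Extend-C18 column (2.1 × 50 mm, 1.8 μm) was operated at 100 μL/min with water and acetonitrile, each containing 0.1% formic acid. The dead volume was 40 μL and the dwell volume 900 μL. Retention time came from adduct peaks that were computationally picked and individually inspected by hand.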
`O=C(CSc1ccc(N2CCCC(C(=O)NC3CC3)C2)nn1)NCc1ccccc1Cl` (stereo unspecified) yielded an RP-LC retention time of 635 s.

`CC(=O)Nc1ccc(NC(=O)C2CCCN(C(=O)c3cc(-c4ccncc4)n[nH]3)C2)cc1` (stereo unspecified) came in with an RP-LC retention time of 566 s.

The molecule `COc1ccc(OCc2noc(CNC(=O)Cn3cnc4ccccc43)n2)cc1` returned an RP-LC retention time of 592 s.

In turn, `CN(C(=O)Cn1ccn2nc(-c3ccccc3)c(CO)c2c1=O)c1ccccc1` returned an RP-LC retention time of 774 s.

Regarding `O=C([C@H]1C[C@@H](F)CN1S(=O)(=O)c1ccc(C(F)(F)F)cc1)N1CCOCC1`, the RP-LC retention time was determined as 738 s.

The molecule `CCCS(=O)(=O)N1CCCC(c2nc(C(C)C)no2)CCNC(=O)CC1` (stereo unspecified) gave an RP-LC retention time of 720 s.

In the case of `CN1C(=O)C(CC(=O)N2CCCCC2)=C2CCCCC21` (stereo unspecified), the RP-LC retention time was 677 s.

Molecule `COc1ccccc1-c1cc(C(=O)N2CCN(c3ncccn3)CC2)c2ccccc2n1` had an RP-LC retention time of 803 s.

`O=S(=O)(NCC1CCN(Cc2cccs2)CC1)c1cc(F)ccc1F` gave an RP-LC retention time of 562 s.

With `Cc1ccc(-c2coc(-c3ccc(NC(=O)NC4CCCC4)cc3)n2)c(C)c1`, the RP-LC retention time worked out at 1180 s.

`CCN(CC)S(=O)(=O)c1ccc2nc(NCc3cc(F)cc(F)c3)cnc2c1` yielded an RP-LC retention time of 1060 s.

On to `COc1ccc(NC(=O)C2CCCN(c3nc4c(s3)c(C)nn4-c3ccc(OC)cc3)C2)cc1` (stereo unspecified), for which the RP-LC retention time came to 1080 s.

Molecule `CCC1CCCCN1S(=O)(=O)c1cc(-c2nc(C)c(C)s2)sc1C` (stereo unspecified) yielded an RP-LC retention time of 1320 s.

As for `CCc1cc(C2CCCN2C(=O)Nc2ccccc2C)on1` (stereo unspecified), the RP-LC retention time came out at 780 s.

`CCCn1c(CCNC(=O)c2cc(F)ccc2F)nc2cccnc21`: the RP-LC retention time worked out at 673 s.

Molecule `CCN(CC)CCNC(=O)c1ccc(NCN2C(=O)NC(c3ccccc3)(c3ccccc3)C2=O)cc1` showed an RP-LC retention time of 726 s.

In turn, `Cc1cc(C)c(NC(=O)C2CCCN(c3nc4ccccc4nc3C(F)(F)F)C2)c(C)c1` (stereo unspecified) returned an RP-LC retention time of 701 s.

`COC(=O)CC1CN=C(Nc2nc(C)c3ccccc3n2)NC1=O` (stereo unspecified) showed an RP-LC retention time of 615 s.

The molecule `CCc1nn(CC)c(=O)c2cc(S(=O)(=O)NC(C)c3ccccc3)cn12` (stereo unspecified) registered an RP-LC retention time of 964 s.

`O=C(Cn1nc2c(N3CCN(c4ccccc4)CC3)nccn2c1=O)Nc1ccccc1Cl` registered an RP-LC retention time of 928 s.

Turning to `Cc1sc(-c2nnc(C(=O)N3CCCCC3)o2)cc1S(=O)(=O)NC1CC1`, the RP-LC retention time was 824 s.

The molecule `Cc1ccc(NC(=O)NCC(c2cccnc2)c2cn(C)c3ccccc23)cc1` (stereo unspecified) registered an RP-LC retention time of 816 s.

In the case of `CC(=O)NCc1nc(-c2ccc(Oc3ccc(NC(C)=O)cc3)cc2)no1`, the RP-LC retention time amounted to 662 s.

As for `Cc1nc(-c2ccc3c(c2)n(CC(=O)NC2CCCc4ccccc42)c(=O)n3C(C)C)no1` (stereo unspecified), the RP-LC retention time is 912 s.

The molecule `Cc1ccc(CNC(=O)c2ccc3ccnc(N4CCN(c5ccc(F)cc5)CC4)c3c2)o1` displayed an RP-LC retention time of 828 s.

`CCC(C(=O)NCCN(C)C)n1c2ccccc2c2cnn(C)c(=O)c21` (stereo unspecified) returned an RP-LC retention time of 618 s.

`Cc1ccc(NC(=O)c2csc(-c3cn(C)c4ncccc34)n2)c(F)c1` yielded an RP-LC retention time of 1160 s.

As for `COCCNC(=O)N1CC(c2nc(-c3cccnc3)no2)C2(CCOCC2)C1` (stereo unspecified), the RP-LC retention time is 596 s.

`CCC1CN(C(=O)N2CCC(C(=O)NCCCOC)CC2)c2cc(C)ccc2O1` (stereo unspecified) gave an RP-LC retention time of 757 s.

Turning to `O=S(=O)(NCc1ccccc1F)c1c[nH]c2ncccc12`, the RP-LC retention time stood at 708 s.

In turn, `CCNC(=O)N1CCCC(Cc2nncn2C(C)C)C1` (stereo unspecified) displayed an RP-LC retention time of 494 s.

Consider `Cc1ccc2cc(CCC(=O)NCCc3ccccn3)c(=O)[nH]c2c1`, for which the RP-LC retention time was found to be 596 s.

For the molecule `COc1ccc(NC(=O)Cn2ncc3c(c2=O)N(C2CC2)C(=O)CS3)cc1OC`, the RP-LC retention time amounted to 647 s.

On to `CC1(C)CC(=O)c2cn(-c3ccccc3)c(=O)c(C(=O)N3CCc4ccccc43)c2C1`, for which the RP-LC retention time is 910 s.

Take `Cc1cc(C)c2c(n1)SCCN2C(=O)CCC(=O)NCc1ccccc1C`: the RP-LC retention time worked out at 700 s.

Turning to `O=C(CSc1nnc(NC(=O)C2CC2)s1)NCc1ccc(F)cc1`, the RP-LC retention time worked out at 674 s.

As to `CCN1CCCC1CN(CC(=O)N1CCNCC1)S(=O)(=O)c1ccc(Br)cc1` (stereo unspecified), the RP-LC retention time was found to be 583 s.

As for `Cc1cc(Cl)ccc1S(=O)(=O)N1CCc2nn(CC(C)C)c(=O)n2CC1`, the RP-LC retention time was determined as 919 s.

`COc1ccc(Cl)cc1NC(=O)C1CCCN1S(=O)(=O)c1cc2c(cc1C)NC(=O)C(C)O2` (stereo unspecified) gave an RP-LC retention time of 909 s.

Molecule `Nc1cc([N+](=O)[O-])ccc1N1C(=O)CCCC1=O` yielded an RP-LC retention time of 650 s.

With `Cc1ccc(NC(=O)Cn2nc3c(N4CC(C)CC(C)C4)nccn3c2=O)cc1` (stereo unspecified), the RP-LC retention time amounted to 884 s.

With `NS(=O)(=O)c1cccnc1Nc1cc(F)cc(F)c1`, the RP-LC retention time stood at 858 s.

In the case of `Cc1nc(-c2csc(S(=O)(=O)N3CCC(C(=O)N4CCCCCC4)CC3)c2)no1`, the RP-LC retention time came to 859 s.

The molecule `CCNS(=O)(=O)c1ccc(-c2c(C)noc2C)cc1` showed an RP-LC retention time of 762 s.

Regarding `COc1cccc(C(=O)CSc2ccc(NC(=O)C3CC3)nn2)c1`, the RP-LC retention time is 797 s.

For `CCOc1ccc(NC(=O)Nc2cc(C(C)C)c(O)cc2C)cc1`, the RP-LC retention time is 909 s.

In the case of `O=C(Nc1ccc(F)cc1)N1CCCC1c1nc(-c2ccccc2)no1` (stereo unspecified), the RP-LC retention time amounted to 947 s.

The molecule `CNC(=O)Cn1nc(C2CCN(C(=O)c3ccc(F)cc3)CC2)c2c1CCOC2` gave an RP-LC retention time of 614 s.

Regarding `CCSCCOC(=O)C1=C(C)NC2=C(C(=O)CC(C)(C)C2)C1c1ccccn1` (stereo unspecified), the RP-LC retention time was 648 s.

`O=c1ccc(S(=O)(=O)N2CCCC2)cn1Cc1ccccc1Cl` had an RP-LC retention time of 854 s.

As for `CCn1cc(C)c(C(=O)O)c1CC(=O)Nc1cc(C)cc(C)c1`, the RP-LC retention time came out at 907 s.

The molecule `COCc1cc(=O)n(CC(=O)NCc2ccccc2Cl)c(N)n1` yielded an RP-LC retention time of 619 s.

The molecule `CC1CCN(S(=O)(=O)c2cccc(-c3nc(-c4ccccc4)no3)c2)CC1` returned an RP-LC retention time of 1360 s.

In the case of `CCc1cccc(NS(=O)(=O)c2cn(C(C)C)c3ncccc23)c1`, the RP-LC retention time was 946 s.

Regarding `CCOc1ccc(S(=O)(=O)N2CCC(C(=O)NCCc3csc(-c4ccccc4)n3)CC2)cc1`, the RP-LC retention time was 997 s.

In the case of `O=C(CSc1ncccn1)Nc1nc(-c2ccccc2)cs1`, the RP-LC retention time came out at 837 s.

As to `CCCN(CC1CCOC1)C(=O)Nc1ccc(C)cc1Cl` (stereo unspecified), the RP-LC retention time is 902 s.

Consider `CCOc1cc(C)c(C)cc1S(=O)(=O)n1cc(C)nc1CC`, for which the RP-LC retention time stood at 712 s.

In turn, `CCc1nccn1Cc1nc(-c2ccc(C)c(C)c2)no1` came in with an RP-LC retention time of 681 s.

In the case of `CN1C(=O)NC2(CCN(C(=O)c3cccs3)CC2)C1=O`, the RP-LC retention time was 561 s.

Turning to `CCn1cc2c3c(cccc31)CN(C(=O)Nc1ccc(OC)c(Cl)c1)CC2`, the RP-LC retention time was found to be 977 s.

For `CCCn1c(=O)c2sc(N3CCCC3)nc2n(CC(=O)NCCC2=CCCCC2)c1=O`, the RP-LC retention time stood at 997 s.

The molecule `O=S(=O)(c1ccc(-c2nnc(C3CCC3)o2)o1)N1CCCC1` yielded an RP-LC retention time of 846 s.

Consider `Cc1nn(CC(=O)NCC2CCCCC2)c(=O)c2nc(-c3ccccc3)sc12`, for which the RP-LC retention time came to 958 s.

In the case of `Cc1ccc(-c2csc(NC(=O)CSc3nc4c(cc3C#N)C(=O)CCC4)n2)cc1`, the RP-LC retention time came to 583 s.

For `Cc1cc(C)cc(C(=O)Nc2cccn3nc(C4CCC4)nc23)c1`, the RP-LC retention time worked out at 1070 s.

As for `COc1ccc(CCNc2nc(-c3ccccc3)cs2)cc1OC`, the RP-LC retention time came to 830 s.

Molecule `Fc1ccc(-n2cc(-c3noc(-c4cccc(F)c4)n3)nn2)cc1` showed an RP-LC retention time of 1050 s.

Take `Cc1cc(=O)n(CC(=O)Nc2ccccc2Cl)c(N2CCCCC2)n1`: the RP-LC retention time is 718 s.

`CCN(CC)c1nc(C(=O)NCCN2CCN(C)CC2)nc2nc(C)cc(C)c12` gave an RP-LC retention time of 542 s.

Molecule `CC(C)N1CCN(C(=O)C2CCc3sc(C(=O)N4CCCCCC4)cc3C2)CC1` (stereo unspecified) registered an RP-LC retention time of 619 s.

`Cc1noc(C2CCCCN2C(=O)c2cc(-c3ccccc3)n[nH]2)n1` (stereo unspecified) gave an RP-LC retention time of 796 s.

For the molecule `CC1=NOC(C)(CNC(=O)NC2CCCC2)C1` (stereo unspecified), the RP-LC retention time came to 633 s.

The molecule `Cc1cc(C)cc(Nc2c(-c3ccc(N(C)C)cc3)nc3cnccn23)c1` gave an RP-LC retention time of 921 s.

Turning to `CCOC(=O)c1c(C)[nH]c(C)c1S(=O)(=O)N1CCC(C(=O)N2CCc3ccccc3C2)CC1`, the RP-LC retention time was 837 s.

`COc1ccc(CCC(=O)N2CCC3(C2)C(=O)Nc2ccccc23)cc1` (stereo unspecified) registered an RP-LC retention time of 729 s.

In turn, `COc1cccc(-n2cc(C(=O)OCc3cccnc3)c3ccccc3c2=O)c1` displayed an RP-LC retention time of 754 s.

In the case of `Cc1ccc(N2C(=O)N(Cc3ccc(F)cc3)S(=O)(=O)c3cccnc32)cc1`, the RP-LC retention time worked out at 1080 s.

`O=C(Nc1cccc(C(F)(F)F)c1)N(Cc1ccsc1)C1CC1` had an RP-LC retention time of 1030 s.

`CCOc1ccc(CNC(=O)C2CCCN(C(=O)c3[nH]c(C)c(C(=O)OC(C)C)c3C)C2)cc1` (stereo unspecified) returned an RP-LC retention time of 877 s.

The molecule `CN(C)C(=O)Cn1cnc2ccccc2c1=O` came in with an RP-LC retention time of 583 s.
